Patent publication US20060069132A1, “Azolecarboxamide herbicides” (priority 2004, published 2006)

What was measured:
large crabgrass = assay: Test A pre-/postemergence herbicide test; type: in vivo, Digitaria sanguinalis
Summary of the method: (§1)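 Seeds sown in sandy loam received a preemergence directed soil spray of compound in non-phytotoxic solvent with surfactant; postemergence plants (2–10 cm, one- to two-leaf stage) were sprayed to runoff at the same time. After ~10 days in greenhouse, injury was rated visually versus untreated controls (0 = no effect, 100 = complete control).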

giant foxtail = assay: Test A pre-/postemergence herbicide test; type: in vivo, Setaria faberi
Summary of the method: as §1

morningglory [1] = assay: Test A pre-/postemergence herbicide test; type: in vivo, Ipomoea spp.
Summary of the method: as §1

bermudagrass = assay: Test C pre-/postemergence herbicide test; type: in vivo, Cynodon dactylon
Text: (§2) Seeds of plant species selected from bermudagrass (Cynodon dactylon (L.) Pers.), Surinam grass (Urochloa decumbens (Staph) R. D. Webster, previously named Brachiaria decumbens Stapf), cocklebur (Xanthium strumarium L.), corn (Zea mays L.), large crabgrass (Digitaria sanguinalis (L.) Scop.), woolly cupgrass (Eriochloa villosa (Thunb.) Kunth), giant foxtail (Setaria faberi Herrm.), goosegrass (Eleusine indica (L.) Gaertn.), johnsongrass (Sorghum halepense (L.) Pers.), kochia (Kochia scoparia (L.) Schrad.), lambsquarters (Chenopodium album L.), morningglory (Ipomoea coccinea L.), eastern black nightshade (Solanum ptycanthum Dunal), yellow nutsedge (Cyperus esculentus L.), pigweed (Amaranthus retroflexus L.), common ragweed (Ambrosia elatior L.), soybean (Glycine max (L.) Merr.), common (oilseed) sunflower (Helianthus annuus L.) and velvetleaf (Abutilon theophrasti Medik.) were planted and treated preemergence with test chemicals formulated in a non-phytotoxic solvent mixture which included a surfactant.
(§3) At the same time, plants selected from these crop and weed species and also winter barley (Hordeum vulgare L.), blackgrass (Alopecurus myosuroides Huds.), canarygrass (Phalaris minor Retz.), chickweed (Stellaria media (L.) Vill.), downy bromegrass (Bromus tectorum L.), green foxtail (Setaria viridis (L.) Beauv.), Italian ryegrass (Lolium multiflorum Lam.), wheat (Triticum aestivum L.), wild oat (Avenafatua L.) and windgrass (Apera spica-venti (L.) Beauv.) were treated with postemergence applications of some of the test chemicals formulated in the same manner. Plants ranged in height from 2 to 18 cm (1- to 4-leaf stage) for postemergence treatments. Plant species in the flooded paddy test consisted of rice (Oryza sativa), smallflower umbrella sedge (Cyperus difformis L.), ducksalad (Heteranthera limosa (Sw.) Willd.) and barnyardgrass (Echinochloa crus-galli (L.) Beauv.) grown to the 2-leaf stage for testing. Treated plants and controls were maintained in a greenhouse for 12 to 14 days, after which time all species were compared to controls and visually evaluated. Plant response ratings, summarized in Table C, are based on a scale of 0 to 100 where 0 is no effect and 100 is complete control. A dash (-) response means no test result.

Surinam grass = assay: Test C pre-/postemergence herbicide test; type: in vivo, Urochloa decumbens; conditions: preemergence
Text: as §2, §3

corn = assay: Test C pre-/postemergence herbicide test; type: in vivo, Zea mays; conditions: preemergence
Text: as §2, §3

goosegrass = assay: Test C pre-/postemergence herbicide test; type: in vivo, Eleusine indica; conditions: preemergence
Text: as §2, §3

johnsongrass = assay: Test C pre-/postemergence herbicide test; type: in vivo, Sorghum halepense; conditions: preemergence
Text: as §2, §3

common ragweed = assay: Test C pre-/postemergence herbicide test; type: in vivo, Ambrosia elatior; design: key to Plant response rating, Ragweed: 0 = no effect, 100 = complete control; conditions: preemergence
Text: as §2, §3

velvetleaf = assay: Test C pre-/postemergence herbicide test; type: in vivo, Abutilon theophrasti; conditions: preemergence
Text: as §2, §3

ducksalad = assay: Test C flooded paddy test; type: in vivo, Heteranthera limosa
barnyardgrass = assay: Test C flooded paddy test; type: in vivo, Echinochloa crus-galli
Summary of the method: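 Postemergence sprays applied to plants 2 to 18 cm tall (1- to 4-leaf stage); paddy species grown to 2-leaf stage under flooding. After 12 to 14 days in greenhouse, visual rating versus untreated controls on 0–100 scale (0 no effect, 100 complete control).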

morningglory [2] = assay: Test C pre-/postemergence herbicide test; type: in vivo, Ipomoea coccinea; design: key to Plant response rating, Morningglory: 0 = no effect, 100 = complete control; conditions: preemergence
Text: as §2, §3

[3] = Postemergence, 500 g ai/ha, 0 to 100 scale, 0 no effect, 100 complete control
[4] = Postemergence, 2000 g ai/ha, 0 to 100 scale, 0 no effect, 100 complete control
[5] = Preemergence, 2000 g ai/ha, visual rating, 0 to 100 scale (0 no effect, 100 complete control)
[6] = preemergence, 500 g ai/ha, visual injury, 0 to 100 scale (0 no effect, 100 complete control)
[7] = 62 g ai/ha, preemergence, scale 0 to 100, 0 no effect, 100 complete control
[8] = 250 g ai/ha, scale 0-100, preemergence
[9] = 500 g ai/ha, scale 0 to 100 (0 no effect, 100 complete control), visual, 12 to 14 days
[10] = 125 g ai/ha, scale 0 (no effect) to 100 (complete control), visual, 12 to 14 days
[11] = 125 g ai/ha, scale 0 to 100 (0 no effect, 100 complete control)
[12] = 250 g ai/ha, scale of 0 to 100, 0 is no effect, 100 is complete control
[13] = 500 g ai/ha, visual rating after 12 to 14 days, scale 0 to 100 (0 no effect, 100 complete control)

CCn1nc(C(C)(C)C)cc1C(=O)Nc1cncc(C(=O)N(C)C)n1 [Compound 287]
Crabgrass, Large plant response rating (large crabgrass; [3]): 10 | Plant response rating, Crabgrass, Large (large crabgrass; [4]): 60 | Crabgrass, Large plant response rating (large crabgrass; [5]): 100 | Crabgrass, Large plant response rating (large crabgrass; [6]): 75 | Foxtail, Giant plant response rating (giant foxtail; [3]): 40 | Plant response rating, Foxtail, Giant (giant foxtail; [4]): 90 | Foxtail, Giant plant response rating (giant foxtail; [5]): 100 | Foxtail, Giant plant response rating (giant foxtail; [6]): 65 | Morningglory plant response rating (morningglory [1]; [3]): 20 | Plant response rating, Morningglory (morningglory [1]; [4]): 15 | Morningglory plant response rating (morningglory [1]; [5]): 50 | Morningglory plant response rating (morningglory [1]; [6]): 10 | Plant response rating, Bermudagrass (bermudagrass; [7]): 85 | Plant response rating, Bermudagrass (bermudagrass; 125 g ai/ha, scale 0 (no effect) to 100 (complete control), visual, 12 to 14 days, preemergence): 95 | Plant response rating, Bermudagrass (bermudagrass; [8]): 95 | Bermudagrass plant response rating (bermudagrass; Preemergence, 500 g ai/ha, scale 0 to 100, 0 no effect, 100 complete control): 95 | Plant response rating, Surinam Grass (Surinam grass; 250 g ai/ha, scale 0-100): 65 | Plant response rating, Surinam Grass (Surinam grass; [9]): 95 | Plant response rating, Corn (corn; 250 g ai/ha, scale 0-100): 50 | Plant response rating, Goosegrass (goosegrass; 62 g ai/ha, scale 0 to 100): 70 | Plant response rating, Goosegrass (goosegrass; [10]): 100 | Plant response rating, Goosegrass (goosegrass; 250 g ai/ha, scale 0-100): 100 | Plant response rating, Goosegrass (goosegrass; [9]): 100 | Plant response rating, Johnsongrass (johnsongrass; 62 g ai/ha, scale 0 to 100): 55 | Plant response rating, Johnsongrass (johnsongrass; [10]): 85 | Plant response rating, Johnsongrass (johnsongrass; 250 g ai/ha, scale 0-100): 95 | Plant response rating, Johnsongrass (johnsongrass; [9]): 95 | Plant response rating, Ragweed (common ragweed; 62 g ai/ha, scale 0 to 100): 100 | Plant response rating, Ragweed (common ragweed; 250 g ai/ha, scale 0-100): 100 | Plant response rating, Ragweed (common ragweed; [9]): 100 | Plant response rating, Velvetleaf (velvetleaf; 62 g ai/ha, scale 0 to 100): 40 | Plant response rating, Velvetleaf (velvetleaf; 250 g ai/ha, scale 0-100): 100 | Plant response rating, Velvetleaf (velvetleaf; [9]): 100 | Ducksalad plant response rating (ducksalad; 62 g ai/ha, scale 0 to 100): 0 | Ducksalad plant response rating (ducksalad; [11]): 30 | Ducksalad plant response rating (ducksalad; [12]): 40 | Plant response rating, Ducksalad (ducksalad; [13]): 45 | Barnyardgrass plant response rating (barnyardgrass; 62 g ai/ha, scale 0 to 100 (0 no effect, 100 complete control)): 0 | Barnyardgrass plant response rating (barnyardgrass; [11]): 0 | Barnyardgrass plant response rating (barnyardgrass; [12]): 0 | Plant response rating, Barnyardgrass (barnyardgrass; [13]): 25

CCN(CC)C(=O)c1cccc(NC(=O)c2nn(C(C)(C)C)nc2C)c1 [Compound 418]
Plant response rating, Bermudagrass (bermudagrass; [7]): 100 | Plant response rating (0 = no effect, 100 = complete control), Bermudagrass (bermudagrass; 125 g ai/ha, preemergence): 100 | Plant response rating, Bermudagrass (bermudagrass; [8]): 100 | Plant response rating, Bermudagrass (bermudagrass; 500 g ai/ha, scale 0 to 100 (0 no effect, 100 complete control), visual, 12 to 14 days, preemergence): 100 | Plant response rating, Surinam Grass (Surinam grass; 62 g ai/ha, scale 0 to 100): 50 | Plant response rating (0 = no effect, 100 = complete control), Surinam Grass (Surinam grass; 125 g ai/ha): 85 | Plant response rating, Surinam Grass (Surinam grass; [9]): 100 | Plant response rating, Corn (corn; 62 g ai/ha, scale 0 to 100): 0 | Plant response rating (0 = no effect, 100 = complete control), Corn (corn; 125 g ai/ha): 10 | Plant response rating, Corn (corn; 250 g ai/ha, scale 0-100): 40 | Plant response rating, Corn (corn; [9]): 80 | Plant response rating, Goosegrass (goosegrass; 62 g ai/ha, scale 0 to 100): 55 | Plant response rating (0 = no effect, 100 = complete control), Goosegrass (goosegrass; 125 g ai/ha): 100 | Plant response rating, Goosegrass (goosegrass; 250 g ai/ha, scale 0-100): 100 | Plant response rating, Goosegrass (goosegrass; [9]): 100 | Plant response rating, Johnsongrass (johnsongrass; 62 g ai/ha, scale 0 to 100): 95 | Plant response rating (0 = no effect, 100 = complete control), Johnsongrass (johnsongrass; 125 g ai/ha): 95 | Plant response rating, Johnsongrass (johnsongrass; 250 g ai/ha, scale 0-100): 95 | Plant response rating, Johnsongrass (johnsongrass; [9]): 95 | Plant response rating, Morningglory (morningglory [2]; 62 g ai/ha, scale 0 to 100): 20 | Plant response rating (0 = no effect, 100 = complete control), Morningglory (morningglory [2]; 125 g ai/ha): 70 | Plant response rating, Morningglory (morningglory [2]; [9]): 100 | Plant response rating, Ragweed (common ragweed; 62 g ai/ha, scale 0 to 100): 50 | Plant response rating (0 = no effect, 100 = complete control), Ragweed (common ragweed; 125 g ai/ha): 70 | Plant response rating, Ragweed (common ragweed; [9]): 100 | Plant response rating, Velvetleaf (velvetleaf; 62 g ai/ha, scale 0 to 100): 90 | Plant response rating (0 = no effect, 100 = complete control), Velvetleaf (velvetleaf; 125 g ai/ha): 95 | Plant response rating, Velvetleaf (velvetleaf; [9]): 100
